Laboratory results as given in PMC4503722, “Novel Phenotypic Outcomes Identified for a Public Collection of Approved Drugs from a Publicly Accessible Panel of Assays” (PLoS ONE, 2015).

Columns and labels:
[1] = tested on: endothelial tube formation in co-cultures of ECFCs and ADSCs treated with VEGF; experiment: cells; assay type: cell-based, human; settings: for IC50: read-out: VEGF_ADSC\ECFC Angio CD31 TubeArea summarized IC50
[2] = tested on: ECFC/ADSC co-culture cell nuclei number; settings: for IC50: read-out: VEGF_ADSC\ECFC Angio Hoechst NucArea summarized IC50

Row | Structure (SMILES) | VEGF_ADSC\ECFC Angio CD31 TubeArea IC50/EC50 [1] | VEGF_ADSC\ECFC Angio Hoechst NucArea IC50/EC50 [2] | further results
1 | COC(=O)C1=C(C)NC(C)=C(C(=O)OC(C)(C)CN(C)CCC(c2ccccc2)c2ccccc2)C1c1cccc([N+](=O)[O-])c1.Cl (centres unmarked) [NCGC00167492-03] | > 10 µM | > 10 µM | 
2 | CC(=O)C[C@H]1[C@H](O[C@H]2[C@H](OC(C)C(=O)N[C@@H](C)C(=O)N[C@H](CCC(=O)N[C@@H](CCCCN)C(=O)N[C@H](C)C(=O)O)C(N)=O)[C@@H](NC(=O)O)C(O)O[C@@H]2CO)O[C@H](CO)[C@@H](O)[C@@H]1O (some centres unmarked) [NCGC00181761-01] | > 10 µM | > 10 µM | 
3 | CCCCc1oc2ccc(NS(C)(=O)=O)cc2c1C(=O)c1ccc(OCCCN(CCCC)CCCC)cc1 [NCGC00188863-02] | 2.754 µM | 7.561 µM | 
4 | Oc1cc(Cl)ccc1Oc1ccc(Cl)cc1Cl [NCGC00159417-05] |  |  | IC50 [1]: > 10 µM; IC50 [2]: 8.1 µM
5 | CCCCC(CC)COC(=O)C(C#N)=C(c1ccccc1)c1ccccc1 (centres unmarked) [NCGC00091585-05] | > 10 µM | 3.289 µM | 
6 | O=c1c(-c2ccc(O)cc2)coc2cc(O)cc(O)c12 [NCGC00015479-19] |  |  | IC50/EC50, VEGF_ADSC\ECFC Angio CD31 TubeArea (assay number 2) [1]: > 10 µM; IC50/EC50, VEGF_ADSC\ECFC Angio Hoechst NucArea (assay number 3) [2]: > 10 µM
7 | CC12CCC(CC1)C(C)(C)O2 [NCGC00091666-04] |  |  | IC50 [1]: > 10 µM; IC50 [2]: > 10 µM
8 | Cc1onc(-c2c(Cl)cccc2Cl)c1C(=O)Cl [NCGC00253649-01] | > 10 µM | > 10 µM | 
9 | CCN(CC)C(=O)/C(C#N)=C/c1cc(O)c(O)c([N+](=O)[O-])c1 [NCGC00164555-03] | > 10 µM | > 10 µM | 
10 | C#C[C@]1(O)CC[C@H]2[C@@H]3CCc4cc(O)ccc4[C@H]3CC[C@@]21C [NCGC00091533-10] |  |  | IC50 [1]: > 10 µM; IC50 [2]: > 10 µM
11 | CC(=O)c1ccc(OCC(=O)N2CCCCC2)cc1 [NCGC00183022-01] | > 10 µM | > 10 µM | 
12 | S=C=Nc1ccc(N=C=S)cc1 [NCGC00166077-02] |  |  | IC50/EC50, VEGF_ADSC\ECFC Angio CD31 TubeArea (assay number 2) [1]: > 10 µM; IC50/EC50, VEGF_ADSC\ECFC Angio Hoechst NucArea (assay number 3) [2]: > 10 µM
13 | CCCCCCCCCCC[C@@H](C[C@@H]1OC(=O)[C@H]1CCCCCC)OC(=O)[C@H](CC(C)C)NC=O [NCGC00165856-03] | > 10 µM | > 10 µM | 
14 | O=C(Nc1ccc([N+](=O)[O-])cc1)Nc1ccc([N+](=O)[O-])cc1 [NCGC00166218-02] |  |  | IC50 [1]: > 10 µM; IC50 [2]: > 10 µM
15 | COc1ccc(CCN2CCC(Nc3nc4ccccc4n3Cc3ccc(F)cc3)CC2)cc1 [NCGC00016913-14] | > 10 µM | > 10 µM | 
16 | COc1ccc(/C=N/NC(=O)c2ccncc2)cc1OC [NCGC00160656-02] |  |  | IC50 [1]: > 10 µM; IC50 [2]: > 10 µM
17 | CCCCN(CCCC)CCC(O)c1cc2c(Cl)cc(Cl)cc2c2cc(C(F)(F)F)ccc12 (centres unmarked) [NCGC00179250-03] | > 10 µM | > 10 µM | 
18 | CN(C)CCCN1c2ccccc2Sc2ccc(Cl)cc21 [NCGC00015273-19] |  |  | IC50 [1]: > 10 µM; IC50 [2]: > 10 µM
19 | COc1ccc([C@@H]2Sc3ccccc3NC(=O)[C@@H]2O)cc1 [NCGC00253672-01] | > 10 µM | > 10 µM | 
20 | O=C1NC2CCCCN2C12CCN(CCCN1c3ccccc3CCc3ccc(Cl)cc31)CC2 (centres unmarked) [NCGC00183853-01] | > 10 µM | > 10 µM | 
21 | Cc1ccc(Nc2c(F)cccc2Cl)c(CC(=O)O)c1 [NCGC00181795-02] | > 10 µM | > 10 µM | 
22 | COC(=O)N[C@H](C(=O)N[C@@H](Cc1ccccc1)[C@@H](O)CN(Cc1ccc(-c2ccccn2)cc1)NC(=O)[C@@H](NC(=O)OC)C(C)(C)C)C(C)(C)C [NCGC00182552-02] | > 10 µM | > 10 µM | 
